In patent US9914760B2, “Methods of identifying, isolating and using odorant and aroma receptors” (Firmenich SA, priority 2013, dated 2018):

Legend:
Assay in all cases: cell-based calcium-flux assay, HEK293T with Gα15
OR11G2 = molecular target: T1, OR11G2 (Homo sapiens, UniProt Q8NGC1); details: increasing concentrations; FIG. 6C
T1 construct: expressed in transfected cells
T1 sequence (Q8NGC1 35-345): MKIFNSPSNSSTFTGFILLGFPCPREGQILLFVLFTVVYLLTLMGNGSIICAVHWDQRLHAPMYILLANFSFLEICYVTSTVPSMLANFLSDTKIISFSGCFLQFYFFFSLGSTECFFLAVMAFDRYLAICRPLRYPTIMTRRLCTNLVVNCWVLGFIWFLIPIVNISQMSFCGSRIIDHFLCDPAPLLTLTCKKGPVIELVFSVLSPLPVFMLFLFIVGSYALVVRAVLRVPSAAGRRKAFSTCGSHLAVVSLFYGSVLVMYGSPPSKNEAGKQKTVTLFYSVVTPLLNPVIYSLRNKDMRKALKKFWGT
From the text: (§1) The activity of candidate human indole and skatole malodors receptors OR52N2 (SEQ ID NO: 11 and SEQ ID NO: 12), OR11G2 (SEQ ID NO: 13 and SEQ ID NO: 14, OR5AC2 (SEQ ID NO: 75 and SEQ ID NO: 76), OR4C15 (SEQ ID NO: 79 and SEQ ID NO: 80), OR8S1 (SEQ ID NO: 83 and SEQ ID NO: 84), OR11H6 (SEQ ID NO: 15 and SEQ ID NO: 16) and OR11H4 (SEQ ID NO: 49 and SEQ ID NO: 50) and candidate mouse indole and skatole malodors receptors Olfr665 (SEQ ID NO: 9 and SEQ ID NO 10) and Olfr740 (SEQ ID NO: 1 and SEQ ID NO 2) were confirmed in cell-based calcium-flux assays (FIGS. 6A to 6J). Cells stably co-expressing Rho-tagged human OR52N2 (FIG. 6A, B) or OR11G2 (FIG. 6C) and Gα15 (SEQ ID NO: 25) were exposed to increasing concentrations of skatole or indole. FIG. 6B is a repeat experiment showing similar activity of OR52N2 with indole and skatole. Odorant-induced OR52N2 or OR11G2 activity was detected by measuring the maximum Calcium 5 dye (Molecular Devices) fluorescence change following odorant exposure. Activity is defined as the baseline corrected Relative Fluorescent Units (RFU) ratios normalized to the highest RFU in the experiment in FIG. 6A. […] A cell line lacking a receptor, for example hOR52N2, was used as a control for non-specific activity at high concentrations (‘Indole control’ and ‘Skatole control’). The human receptor OR52N2 (SEQ ID NO: 11 and SEQ ID NO: 12) was identified because of its sequence similarity to mouse Olfr665 (SEQ ID NO: 10), an indole/skatole receptor isolated from olfactory neurons responding to both indole and skatole. The human receptor OR11G2 (SEQ ID NO: 13 and SEQ ID NO: 14) was identified because of its sequence similarity to mouse Olfr740 (SEQ ID NO: 2), an indole/skatole receptor isolated from olfactory neurons responding to both indole and skatole. The receptors were modified with the Rho sequence and stably expressed in HEK 293T cells. Further examples show indole and skatole dose-response curves for human receptors OR5AC2, OR4C15, OR8S1, OR11H6, OR11H4 and mouse receptors Olfr665 and Olfr740 (FIG. 6D-J). The human receptor OR5AC2 (SEQ ID NO: 75 and SEQ ID NO: 76) was identified because of its sequence similarity to mouse Olfr207 (SEQ ID NO: 78), a receptor isolated from olfactory neurons responding to both indole and skatole. The human receptor OR4C15 (SEQ ID NO: 79 and SEQ ID NO: 80) was identified because of its sequence similarity to mouse Olfr211 (SEQ ID NO: 82), a receptor isolated from olfactory neurons responding to both indole and skatole. The human receptor OR8S1 (SEQ ID NO: 83 and SEQ ID NO: 84) was identified because of its sequence similarity to mouse Olfr257 (SEQ ID NO: 86), a receptor isolated from olfactory neurons responding to both indole and skatole. The human receptor OR11H6 (SEQ ID NO: 15 and SEQ ID NO: 16) was identified because of its sequence similarity to mouse Olfr745 (SEQ ID NO: 8), a receptor isolated from olfactory neurons responding to both indole and skatole. The human receptor OR11H4 (SEQ ID NO: 49 and SEQ ID NO: 50) was identified because of its sequence similarity to mouse Olfr746 (SEQ ID NO: 38), a receptor isolated from olfactory neurons responding to both indole and skatole. The mouse receptor Olfr665 (SEQ ID NO: 9 and SEQ ID NO: 10) was identified directly from NGS data from isolated olfactory neurons responding to both indole and skatole. The mouse receptor Olfr740 (SEQ ID NO: 1 and SEQ ID NO: 2) was identified directly from NGS data from isolated olfactory neurons responding to both indole and skatole. Co-expression of the human G alpha subunit Gα15 activates the Gq transduction pathway that leads to an internal Ca2+ increase upon binding to the appropriate ligand.

OR11H6 = molecular target: T2, OR11H6 (Homo sapiens, UniProt Q8NGC7); details: dose-response curves FIG. 6D-J
T2 construct: expressed in transfected cells
T2 sequence (Q8NGC7 1-330): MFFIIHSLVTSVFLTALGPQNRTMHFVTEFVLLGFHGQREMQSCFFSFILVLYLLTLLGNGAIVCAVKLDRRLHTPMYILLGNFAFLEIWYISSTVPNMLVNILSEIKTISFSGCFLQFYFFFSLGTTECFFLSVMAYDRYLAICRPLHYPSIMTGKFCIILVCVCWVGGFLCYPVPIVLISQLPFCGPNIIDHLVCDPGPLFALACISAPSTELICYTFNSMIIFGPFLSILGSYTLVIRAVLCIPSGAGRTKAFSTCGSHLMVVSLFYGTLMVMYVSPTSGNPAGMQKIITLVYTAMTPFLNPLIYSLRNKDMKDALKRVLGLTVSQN
From the text: as §1

OR5AC2 = molecular target: T3, OR5AC2 (Homo sapiens, UniProt Q9NZP5); details: dose-response curves FIG. 6D-J
T3 construct: expressed in transfected cells
T3 sequence (Q9NZP5 1-309): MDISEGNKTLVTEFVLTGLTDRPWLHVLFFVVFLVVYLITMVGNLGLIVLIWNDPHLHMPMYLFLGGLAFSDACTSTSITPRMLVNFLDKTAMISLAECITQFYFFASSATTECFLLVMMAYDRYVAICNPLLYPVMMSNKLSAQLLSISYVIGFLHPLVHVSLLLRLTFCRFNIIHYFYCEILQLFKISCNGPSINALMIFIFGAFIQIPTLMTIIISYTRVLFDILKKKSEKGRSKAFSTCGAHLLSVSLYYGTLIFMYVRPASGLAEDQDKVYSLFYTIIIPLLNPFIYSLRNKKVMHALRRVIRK
From the text: as §1

SMILES	receptor activity (Calcium 5 dye fluorescence change) (OR11G2)	receptor response in vitro (OR11H6)	receptor response in vitro (OR5AC2)
c1ccc2[nH]ccc2c1 [indole]	dose-dependent increase of receptor activity	responded	responded
Cc1c[nH]c2ccccc12 [skatole, 3-methyl indole]	dose-dependent increase of receptor activity	responded	responded
